Data from ChEMBL document CHEMBL1201862, “PubChem BioAssay data set” (2004).
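Protocol summary: plate cells (96-well), add compound at 5 concentrations, incubate 48 h, interpolate endpoints linearly. GI50 marks 50% less growth.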 Calls of active or inactive are those of the source. Cut-off read from the data, not from the text of the source: active = GI50 up to about 1.1 µM and inactive = higher.

Legend:
Experiment in all cases: DTP human tumour cell line panel, 48 h
786-0 = test system: 786-0
A549 = test system: A549
ACHN = test system: ACHN
BT-549 = test system: BT-549
CAKI-1 = test system: CAKI-1
CCRF-CEM = test system: CCRF-CEM
COLO 205 = test system: COLO 205
DU-145 = test system: DU-145
EKVX = test system: EKVX
HCC 2998 = test system: HCC 2998
HCT-116 = test system: HCT-116
HCT-15 = test system: HCT-15
HOP-62 = test system: HOP-62
HOP-92 = test system: HOP-92
HT-29 = test system: HT-29
K562 = test system: K562
KM12 = test system: KM12
M14 = test system: M14
MCF7 = test system: MCF7
MDA-MB-231 = test system: MDA-MB-231
MDA-MB-435 = test system: MDA-MB-435
MDA-N = test system: MDA-N
MOLT-4 = test system: MOLT-4
Malme-3M = test system: Malme-3M
NCI-H226 = test system: NCI-H226
NCI-H23 = test system: NCI-H23
NCI-H460 = test system: NCI-H460
NCI-H522 = test system: NCI-H522
NCI/ADR-RES = test system: NCI/ADR-RES
OVCAR-3 = test system: OVCAR-3
OVCAR-4 = test system: OVCAR-4
OVCAR-5 = test system: OVCAR-5
OVCAR-8 = test system: OVCAR-8
PC-3 = test system: PC-3
RPMI-8226 = test system: RPMI-8226
RXF 393 = test system: RXF 393
SF-268 = test system: SF-268
SK-MEL-2 = test system: SK-MEL-2
SN12C = test system: SN12C
SNB-19 = test system: SNB-19
SR = test system: SR
SW-620 = test system: SW-620
T47D = test system: T47D
TK-10 = test system: TK-10
U-251 = test system: U-251
UACC-257 = test system: UACC-257
UO-31 = test system: UO-31
A498 = test system: A498
HL-60 = test system: HL-60
Hs-578T = test system: Hs-578T
IGROV-1 = test system: IGROV-1
LOX IMVI = test system: LOX IMVI
SF-295 = test system: SF-295
SF-539 = test system: SF-539
SK-MEL-28 = test system: SK-MEL-28
SK-MEL-5 = test system: SK-MEL-5
SK-OV-3 = test system: SK-OV-3
SNB-75 = test system: SNB-75
UACC-62 = test system: UACC-62

Measured: GI50

NC(=O)N/N=C1\CCCCc2ccccc21
> 10 µM: HCT-15
inactive: 786-0 > 10 µM | A549 > 10 µM | ACHN > 10 µM | BT-549 > 10 µM | CAKI-1 > 10 µM | CCRF-CEM > 10 µM | COLO 205 > 10 µM | DU-145 > 10 µM | EKVX > 10 µM | HCC 2998 > 10 µM | HCT-116 > 10 µM | HOP-62 > 10 µM | HOP-92 > 10 µM | HT-29 > 10 µM | K562 > 10 µM | KM12 > 10 µM | M14 > 10 µM | MCF7 > 10 µM | MDA-MB-231 > 10 µM | MDA-MB-435 > 10 µM | MDA-N > 10 µM | MOLT-4 > 10 µM | Malme-3M > 10 µM | NCI-H226 > 10 µM | NCI-H23 > 10 µM | NCI-H460 > 10 µM | NCI-H522 > 10 µM | NCI/ADR-RES > 10 µM | OVCAR-3 > 10 µM | OVCAR-4 > 10 µM | OVCAR-5 > 10 µM | OVCAR-8 > 10 µM | PC-3 > 10 µM | RPMI-8226 > 10 µM | RXF 393 > 10 µM | SF-268 > 10 µM | SK-MEL-2 > 10 µM | SN12C > 10 µM | SNB-19 > 10 µM | SR > 10 µM | SW-620 > 10 µM | T47D > 10 µM | TK-10 > 10 µM | U-251 > 10 µM | UACC-257 > 10 µM | UO-31 > 10 µM

OCCOCn1nncc1Cn1ncc2c(O)ncnc21
> 100 µM: HCT-15
inactive: 786-0 52 µM | A498 > 100 µM | A549 97.9 µM | ACHN > 100 µM | BT-549 > 100 µM | CAKI-1 > 100 µM | COLO 205 97.7 µM | DU-145 43.7 µM | EKVX > 100 µM | HCC 2998 > 100 µM | HCT-116 > 100 µM | HL-60 23.9 µM | HOP-62 > 100 µM | HOP-92 > 100 µM | HT-29 40 µM | Hs-578T > 100 µM | IGROV-1 > 100 µM | K562 43.6 µM | KM12 32.6 µM | LOX IMVI 74.3 µM | M14 > 100 µM | MCF7 48.8 µM | MDA-MB-231 > 100 µM | MDA-MB-435 26.9 µM | MOLT-4 40 µM | Malme-3M > 100 µM | NCI-H226 > 100 µM | NCI-H23 > 100 µM | NCI-H460 49.4 µM | NCI-H522 60.8 µM | NCI/ADR-RES > 100 µM | OVCAR-3 28.6 µM | OVCAR-4 > 100 µM | OVCAR-5 > 100 µM | OVCAR-8 > 100 µM | PC-3 55.1 µM | RXF 393 > 100 µM | SF-268 > 100 µM | SF-295 > 100 µM | SF-539 > 100 µM | SK-MEL-28 > 100 µM | SK-MEL-2 54.1 µM | SK-MEL-5 47.5 µM | SK-OV-3 71.6 µM | SN12C > 100 µM | SNB-19 > 100 µM | SNB-75 > 100 µM | SW-620 31.8 µM | T47D > 100 µM | TK-10 > 100 µM | U-251 > 100 µM | UACC-257 > 100 µM | UACC-62 > 100 µM | UO-31 > 100 µM

O=C(CSC1=NC(=O)C2(NN1)c1ccccc1-c1ccccc12)NC(=S)Nc1ccccc1
inactive: 786-0 > 10 µM | A549 > 10 µM | ACHN 1.81 µM | BT-549 > 10 µM | CAKI-1 > 10 µM | CCRF-CEM > 10 µM | COLO 205 > 10 µM | DU-145 > 10 µM | EKVX 4.04 µM | HCC 2998 > 10 µM | HCT-116 > 10 µM | HL-60 > 10 µM | HOP-62 > 10 µM | HOP-92 > 10 µM | HT-29 > 10 µM | IGROV-1 > 10 µM | K562 > 10 µM | KM12 > 10 µM | LOX IMVI > 10 µM | M14 > 10 µM | MCF7 4.27 µM | MDA-MB-231 > 10 µM | MDA-MB-435 > 10 µM | MDA-N > 10 µM | MOLT-4 9.14 µM | Malme-3M > 10 µM | NCI-H226 8.2 µM | NCI-H23 > 10 µM | NCI-H460 > 10 µM | NCI-H522 7.03 µM | NCI/ADR-RES 7.76 µM | OVCAR-4 > 10 µM | OVCAR-5 > 10 µM | OVCAR-8 > 10 µM | PC-3 > 10 µM | RPMI-8226 9.04 µM | RXF 393 > 10 µM | SF-268 > 10 µM | SF-295 > 10 µM | SF-539 > 10 µM | SK-MEL-28 > 10 µM | SK-MEL-5 > 10 µM | SK-OV-3 > 10 µM | SN12C > 10 µM | SNB-19 > 10 µM | SNB-75 > 10 µM | SR 6.03 µM | SW-620 > 10 µM | T47D 2.34 µM | TK-10 > 10 µM | UACC-257 > 10 µM | UACC-62 > 10 µM | UO-31 4.7 µM
> 10 µM: HCT-15

COC(=O)c1ccccc1CC(Cc1ccccc1)C(=O)OC (centres undefined)
31.3 µM: HCT-15
inactive: 786-0 71.3 µM | A498 92.5 µM | A549 61.9 µM | ACHN > 100 µM | BT-549 > 100 µM | CAKI-1 83.4 µM | CCRF-CEM 87.9 µM | COLO 205 64.6 µM | DU-145 > 100 µM | EKVX 45.9 µM | HCC 2998 40.3 µM | HCT-116 47.9 µM | HL-60 18.5 µM | HOP-62 > 100 µM | HT-29 55.5 µM | Hs-578T 56 µM | IGROV-1 > 100 µM | K562 37.7 µM | KM12 87.3 µM | LOX IMVI 58.9 µM | M14 68.7 µM | MCF7 82 µM | MDA-MB-231 > 100 µM | MDA-MB-435 75.3 µM | MOLT-4 27.4 µM | Malme-3M 64.4 µM | NCI-H226 43.1 µM | NCI-H23 46.6 µM | NCI-H460 > 100 µM | NCI-H522 50.6 µM | NCI/ADR-RES 42.5 µM | OVCAR-3 58.1 µM | OVCAR-4 96.8 µM | OVCAR-5 62.7 µM | OVCAR-8 87.1 µM | PC-3 47.1 µM | RPMI-8226 27.6 µM | RXF 393 33.7 µM | SF-268 20.3 µM | SF-295 > 100 µM | SF-539 > 100 µM | SK-MEL-28 > 100 µM | SK-MEL-2 36.8 µM | SK-MEL-5 22.8 µM | SK-OV-3 36.3 µM | SN12C > 100 µM | SNB-19 68.4 µM | SNB-75 20 µM | SR 27 µM | SW-620 > 100 µM | T47D > 10 µM | TK-10 99.1 µM | U-251 30.8 µM | UACC-257 72.1 µM | UO-31 39.1 µM

CN1CCN(c2ccc3nc(C4=C(O)C(=O)[C@@H]5C(=C4O)N=C(CO)N5C)[nH]c3n2)CC1
> 100 µM: HCT-15
inactive: 786-0 > 100 µM | A549 > 100 µM | ACHN > 100 µM | BT-549 > 100 µM | CAKI-1 > 100 µM | CCRF-CEM 97.5 µM | COLO 205 80.5 µM | DU-145 > 100 µM | EKVX > 100 µM | HCC 2998 68.4 µM | HCT-116 94.2 µM | HL-60 40.2 µM | HOP-62 > 100 µM | HOP-92 55 µM | HT-29 > 100 µM | Hs-578T > 100 µM | IGROV-1 > 100 µM | K562 24 µM | KM12 > 100 µM | LOX IMVI 73.1 µM | M14 > 100 µM | MDA-MB-231 62.5 µM | MDA-MB-435 93.8 µM | MOLT-4 > 100 µM | Malme-3M > 100 µM | NCI-H226 > 100 µM | NCI-H23 > 100 µM | NCI-H460 > 100 µM | NCI-H522 64.3 µM | NCI/ADR-RES > 100 µM | OVCAR-3 91 µM | OVCAR-4 75.2 µM | OVCAR-5 > 100 µM | OVCAR-8 61.1 µM | PC-3 69.8 µM | RPMI-8226 > 100 µM | RXF 393 > 100 µM | SF-268 74.3 µM | SF-295 > 100 µM | SF-539 33.5 µM | SK-MEL-28 > 100 µM | SK-OV-3 > 100 µM | SN12C > 100 µM | SNB-19 57.5 µM | SNB-75 97.3 µM | SW-620 > 100 µM | T47D 17.7 µM | U-251 41.4 µM | UACC-257 > 100 µM | UACC-62 33.3 µM | UO-31 > 100 µM
